Measured values published in ChEMBL document CHEMBL1135216, “New 2-(1-adamantylcarbonyl)pyridine and 1-acetyladamantane thiosemicarbazones-thiocarbonohydrazones: cell growth inhibitory, antiviral and antimicrobial activity evaluation” (Bioorg Med Chem Lett, 2002).
Values after ≈ are worked out from the molar mass of the structure shown.

Columns and labels:
CCRF-CEM [1] = assay: Tested for the inhibitory concentration against cell growth of human leukemic cell line CCRF-CEM; assay type: functional
CCRF-CEM [2] = assay: Tested for the concentration required to reduce the viability of leukemia cells by 50% against cell growth of T cell leukemia cell line CCRF-CEM using MTT assay; assay type: functional; conditions: Homo sapiens
CCRF-CEM [3] = assay: Tested for the inhibitory concentration against cell growth of Tcell leukemic cell line CCRF-CEM using MTT assay; assay type: functional; conditions: Homo sapiens
E6SM [4] = assay: Tested for antiviral activity against VSV-virus in human embryonic skin muscle fibroblasts; assay type: functional; conditions: Muscle tissue
E6SM [5] = assay: Tested for antiviral activity against herpes simplex virus type 1(KOS) in E6SM cell line(human embryonic skin-muscle fibroblasts); assay type: functional
E6SM [6] = assay: Tested for antiviral activity against vaccinia virus in human embryonic skin muscle fibroblast; assay type: functional; conditions: Muscle tissue
E6SM [7] = assay: The compound was tested for antiviral activity against VSV-virus in human epithelial cells; assay type: functional
E6SM [8] = assay: Tested for cytotoxic activity in human embryonic skin muscle fibroblast (E6SM); assay type: functional; conditions: Muscle tissue
E6SM [9] = assay: Antiviral activity against thymidine kinase-deficient (TK-HSV-1)virus in E6SM cell line(human embryonic skin-muscle fibroblasts); assay type: functional
Escherichia coli = assay: Tested for the antimicrobial activity against Escherichia coli ATCC 25922; assay type: functional
HEL [10] = assay: Tested for cytotoxic activity in human embryonic lung fibroblast (HEL); assay type: functional
HEL [11] = assay: Tested for antiviral activity against human cytomegalovirus (AD-169) in human embryonic lung fibroblasts; assay type: functional
HEL [12] = assay: Tested for antiviral activity against thymidine kinase deficient Varicella zoster virus in human embryonic lung fibroblasts; assay type: functional
HEL [13] = assay: Tested for antiviral activity against thymidine kinase wild type Varicella zoster virus in human embryonic lung fibroblast; assay type: functional
HeLa [14] = assay: Tested for antiviral activity against coxsackie-B4 virus in human epithelial cell line; assay type: functional
HL-60 [15] = assay: Tested for the inhibitory concentration against cell growth of human leukemic cell line HL60; assay type: functional
HL-60 [16] = assay: Tested for the concentration required to reduce the viability of leukemia cells by 50% against cell growth of HL60 acute myeloid leukemia using MTT assay; assay type: functional; conditions: Homo sapiens, read-out: LC50 (the source's name)
HL-60 [17] = assay: Tested for the inhibitory concentration against cell growth of HL60 acute myeloid leukemia using MTT assay; assay type: functional; conditions: Homo sapiens
HeLa [18] = assay: Tested for cytotoxic activity in human epithelial cell line (HeLa); assay type: functional
HuT78 [19] = assay: Tested for the inhibitory concentration against cell growth of human leukemic cell line HuT78; assay type: functional
HuT78 [20] = assay: Tested for the concentration required to reduce the viability of leukemia cells by 50% against cell growth of HuT78 T lymphoma using MTT assay; assay type: functional; conditions: Homo sapiens
HuT78 [21] = assay: Tested for the inhibitory concentration against cell growth of HuT78 T lymphoma using MTT assay; assay type: functional; conditions: Homo sapiens
K562 [22] = assay: Tested for the concentration required to reduce the viability of leukemia cells by 50% against cell growth of K562 chronic myeloid leukemia using MTT assay; assay type: functional; conditions: Homo sapiens, read-out: LC50 (the source's name)
K562 [23] = assay: Tested for the inhibitory concentration against cell growth of K562 chronic myeloid leukemia using MTT assay; assay type: functional; conditions: Homo sapiens
K562 [24] = assay: Tested for the inhibitory concentration against cell growth of human leukemic cell line K562; assay type: functional
Klebsiella pneumoniae = assay: Tested for the antimicrobial activity against Klebsiella pneumoniae ATCC 13883; assay type: functional
MOLT-4 [25] = assay: Tested for the inhibitory concentration against cell growth of human leukemic cell line MOLT-4; assay type: functional
MT4 [26] = assay: Tested for effective concentration required to protect MT-4 cells against the cytopathicity of HIV-1(IIIB); assay type: functional; conditions: Homo sapiens, read-out: LC50 (the source's name)
MT4 [27] = assay: Tested for effective concentration required to protect MT-4 cells against the cytopathicity of HIV-2(ROD); assay type: functional, cell-based; conditions: Homo sapiens
MOLT-4 [28] = assay: Tested for the concentration required to reduce the viability of leukemia cells by 50% against cell growth of T cell leukemia cell line MOLT-4 using MTT assay; assay type: functional; conditions: Homo sapiens
MOLT-4 [29] = assay: Tested for the inhibitory concentration against cell growth of Tcell leukemic cell line MOLT-4 using MTT assay; assay type: functional; conditions: Homo sapiens
RPMI-8226 [30] = assay: Tested for the inhibitory concentration against cell growth of human leukemic cell line RPMI8226; assay type: functional
RPMI-8226 [31] = assay: Tested for the concentration required to reduce the viability of leukemia cells by 50% against cell growth of RPMI8226 multiple myeloma using MTT assay; assay type: functional; conditions: Homo sapiens, read-out: LC50 (the source's name)
RPMI-8226 [32] = assay: Tested for the inhibitory concentration against cell growth of […] multiple myeloma using MTT assay; assay type: functional; conditions: Homo sapiens
Staphylococcus aureus = assay: Tested for the antimicrobial activity against Staphylococcus aureus ATCC 6538; assay type: functional
[33] = test system: Staphylococcus epidermidis; assay: Tested for the antimicrobial activity against Staphylococcus epidermidis ATCC 12228; assay type: functional
Staphylococcus hominis = assay: Tested for the antimicrobial activity against Staphylococcus hominis ATCC 27844; assay type: functional
Vero [34] = assay: Tested for cytotoxic activity in African green monkey kidney cells (Vero); assay type: functional; conditions: Chlorocebus sabaeus
Vero [35] = assay: Tested for antiviral activity against Punta toro virus in African green monkey kidney cell (Vero); assay type: functional; conditions: Chlorocebus sabaeus
Vero [36] = assay: Tested for antiviral activity against Reo-1 virus in African green monkey kidney cell (Vero); assay type: functional; conditions: Chlorocebus sabaeus
Vero [37] = assay: Tested for antiviral activity against Sindbis virus in African green monkey kidney cell (Vero); assay type: functional; conditions: Chlorocebus sabaeus
Vero [38] = assay: Tested for antiviral activity against coxsackie B-4 virus in African green monkey kidney cell (Vero); assay type: functional; conditions: Chlorocebus sabaeus
Vero [39] = assay: Tested for antiviral activity against parainfluenza virus in african green monkey kidney cell (Vero); assay type: functional; conditions: Chlorocebus sabaeus
MT4 [40] = assay: Tested for cytotoxic concentration required to reduce the viability of MT-4 cells by 50%; assay type: functional, cell-based; conditions: Homo sapiens, read-out: EC50 (the source's name)
E6SM [41] = assay: Tested for antiviral activity against thymidine kinase-deficient (TK-HSV-2G) virus in E6SM cell line(human embryonic skin-muscle fibroblasts)

S=C(N/N=C(/c1ccccn1)C12CC3CC(CC(C3)C1)C2)NNC(=S)c1ccc(Cl)cc1Cl was tested, and the GI50 (CCRF-CEM [1]) was 66.3 µM, the TGI (CCRF-CEM [2]) was 100 µM and the TGI (CCRF-CEM [3]) was 100 µM. For the same compound, the MIC (E6SM [4]) was greater than 16 µg/mL, the MIC (E6SM [5]) was greater than 16 µg/mL and the MIC (E6SM [6]) was greater than 16 µg/mL. The MIC (E6SM [7]) was greater than 16 µg/mL, the MCC (E6SM [8]) was 80 µg/mL and the MIC (E6SM [9]) was greater than 16 µg/mL. It also gave an MIC (Escherichia coli) greater than 1880 µg/mL, an MCC (HEL [10]) of 5 µg/mL and an MIC (HEL [11]) greater than 2 µg/mL. It also gave an MIC (HEL [12]) greater than 2 µg/mL, an MIC (HEL [13]) greater than 2 µg/mL and an MIC (HeLa [14]) greater than 3.2 µg/mL. The GI50 (HL-60 [15]) was 3.6 µM, the CC50 (HL-60 [16]) was 31.9 µM and the TGI (HL-60 [17]) was 7 µM. The MCC (HeLa [18]) was 16 µg/mL, the GI50 (HuT78 [19]) was 23 µM and the TGI (HuT78 [20]) was 100 µM. For the same compound, the TGI (HuT78 [21]) was 81 µM, the CC50 (K562 [22]) was 100 µM and the TGI (K562 [23]) was 100 µM. The GI50 (K562 [24]) was 100 µM, the MIC (Klebsiella pneumoniae) was greater than 1880 µg/mL and the GI50 (MOLT-4 [25]) was 31.4 µM. The EC50 (MT4 [26]) was greater than 3 µM, the EC50 (MT4 [27]) was greater than 3 µM and the TGI (MOLT-4 [28]) was 100 µM. The TGI (MOLT-4 [29]) was 100 µM, the GI50 (RPMI-8226 [30]) was 4.6 µM and the CC50 (RPMI-8226 [31]) was 100 µM. For the same compound, the TGI (RPMI-8226 [32]) was 29.5 µM, the MIC (Staphylococcus aureus) was 117 µg/mL (≈ 226 µM) and the MIC [33] was 117 µg/mL (≈ 226 µM). It also gave an MIC (Staphylococcus hominis) of 117 µg/mL (≈ 226 µM), an MCC (Vero [34]) of 16 µg/mL and an MIC (Vero [35]) greater than 3.2 µg/mL. The MIC (Vero [36]) was greater than 3.2 µg/mL, the MIC (Vero [37]) was greater than 3.2 µg/mL and the MIC (Vero [38]) was greater than 3.2 µg/mL. The MIC (Vero [39]) was greater than 3.2 µg/mL, the CC50 (MT4 [40]) was 2.6 µM and the MIC (E6SM [41]) was greater than 3.2 µg/mL.

For C/C(=N/N=C(\N)S)C12CC3CC(CC(C3)C1)C2, the GI50 (CCRF-CEM [1]) was 23.6 µM, the TGI (CCRF-CEM [2]) was 86.7 µM and the TGI (CCRF-CEM [3]) was 55.2 µM. For the same compound, the MIC (E6SM [4]) was greater than 400 µg/mL, the MIC (E6SM [5]) was 240 µg/mL (≈ 955 µM) and the MIC (E6SM [6]) was greater than 400 µg/mL. It also gave an MIC (E6SM [7]) of 240 µg/mL (≈ 955 µM), an MCC (E6SM [8]) greater than 400 µg/mL and an MIC (E6SM [9]) greater than 400 µg/mL. The MIC (Escherichia coli) was greater than 3980 µg/mL, the MCC (HEL [10]) was 5 µg/mL and the MIC (HEL [11]) was greater than 2 µg/mL. For the same compound, the MIC (HEL [12]) was greater than 2 µg/mL, the MIC (HEL [13]) was greater than 2 µg/mL and the MIC (HeLa [14]) was greater than 80 µg/mL. It also gave a GI50 (HL-60 [15]) of 5.2 µM, a CC50 (HL-60 [16]) of 63.6 µM and a TGI (HL-60 [17]) of 24.1 µM. It also gave an MCC (HeLa [18]) of 400 µg/mL, a GI50 (HuT78 [19]) of 2.3 µM and a TGI (HuT78 [20]) of 83.1 µM. It also gave a TGI (HuT78 [21]) of 29.1 µM, a CC50 (K562 [22]) of 62.6 µM and a TGI (K562 [23]) of 10.4 µM. The GI50 (K562 [24]) was 2.8 µM, the MIC (Klebsiella pneumoniae) was greater than 3980 µg/mL and the GI50 (MOLT-4 [25]) was 2.3 µM. The EC50 (MT4 [26]) was greater than 8 µM, the EC50 (MT4 [27]) was greater than 8 µM and the TGI (MOLT-4 [28]) was 59.4 µM. The TGI (MOLT-4 [29]) was 9.3 µM, the GI50 (RPMI-8226 [30]) was 7.1 µM and the CC50 (RPMI-8226 [31]) was 69.2 µM. The TGI (RPMI-8226 [32]) was 33.3 µM, the MIC (Staphylococcus aureus) was greater than 3980 µg/mL and the MIC [33] was greater than 3980 µg/mL. It also gave an MIC (Staphylococcus hominis) greater than 3980 µg/mL, an MCC (Vero [34]) of 400 µg/mL and an MIC (Vero [35]) greater than 80 µg/mL. It also gave an MIC (Vero [36]) greater than 80 µg/mL, an MIC (Vero [37]) greater than 80 µg/mL and an MIC (Vero [38]) greater than 80 µg/mL. For the same compound, the MIC (Vero [39]) was greater than 80 µg/mL, the CC50 (MT4 [40]) was 7.5 µM and the MIC (E6SM [41]) was greater than 80 µg/mL.
